The values below are quoted from earlier work in patent publication US20260048005A1, “INJECTABLE THERMOSENSITIVE HYDROGELS FOR A SUSTAINED RELEASE OF IRON NANOCHELATORS” (The General Hospital Corporation, priority 2022, published 2026).

For this series the following is noted: in rodents.

What is called half-life is how long it takes for the measured level to halve. For `CC(=O)N(O)CCCCCNC(=O)CCC(=O)N(O)CCCCCNC(=O)CCC(=O)N(O)CCCCCN` [DFO, deferoxamine], the half-life was 5 to 15 min.
